Measured values published in PubChem BioAssay AID248 (DTP/NCI, 2004).
“And” between values parts separate entries of the source, which are not always exact repeats. Equal entries are not always repeated. Toxic doses and inconclusive results are not listed. Rule as the data show it: active = T/C of 150% or more; inactive = T/C below 125%.

System: L1210 leukemia ip in BDF1 mice, survival T/C
Assay: NCI In Vivo Anticancer Drug Screen. Data for tumor model L1210 Leukemia (intraperitoneal) in B6D2F1 (BDF1) mice
Settings: higher = longer survival
How it was run: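 Transplantable tumor model; survival measured in treated vs vehicle control mice. Value = treated/control.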

Measured: T/C

CC[C@]1(O)C[C@H]2CN(CCc3c([nH]c4ccccc34)[C@@](C(=O)OC)(c3cc4c(cc3OC)N(C=O)[C@H]3[C@@](O)(C(=O)OC)[C@H](OC(C)=O)[C@]5(CC)C=CCN6CC[C@]43[C@@H]65)C2)C1
inactive: endpoint: mean survival time, dose: 0.03 mg/kg/injection, schedule: Q01DX015 (ip), vehicle: saline 108 % of control | endpoint: mean survival time, dose: 0.03 mg/kg/injection, schedule: Q03HX032 (ip), vehicle: saline 107 % of control | endpoint: mean survival time, dose: 0.03 mg/kg/injection, schedule: Q## X032 (ip), vehicle: saline 107 % of control | endpoint: mean survival time, dose: 0.04 mg/kg/injection, schedule: Q03HX032 (ip), vehicle: saline 109 % of control | endpoint: mean survival time, dose: 0.04 mg/kg/injection, schedule: Q## X032 (ip), vehicle: saline 109 % of control | endpoint: mean survival time, dose: 0.05 mg/kg/injection, schedule: Q01DX005 (ip), vehicle: saline 101 % of control | endpoint: mean survival time, dose: 0.05 mg/kg/injection, schedule: Q01DX005 (iv), vehicle: saline 101 % of control | endpoint: mean survival time, dose: 0.05 mg/kg/injection, schedule: Q01DX015 (ip), vehicle: saline 108 % of control | endpoint: mean survival time, dose: 0.06 mg/kg/injection, schedule: Q01DX Z (ip), vehicle: water 105 % of control | endpoint: mean survival time, dose: 0.06 mg/kg/injection, schedule: Q## X032 (ip), vehicle: saline 113 % of control | endpoint: mean survival time, dose: 0.07 mg/kg/injection, schedule: Q03HX032 (ip), vehicle: saline 113 % of control | endpoint: mean survival time, dose: 0.08 mg/kg/injection, schedule: Q04DX002 (ip), vehicle: saline 102 % of control and 104 % of control | endpoint: mean survival time, dose: 0.1 mg/kg/injection, schedule: Q01DX005 (ip), vehicle: saline 116 % of control | endpoint: mean survival time, dose: 0.1 mg/kg/injection, schedule: Q01DX005 (iv), vehicle: saline 100 % of control | endpoint: mean survival time, dose: 0.12 mg/kg/injection, schedule: Q01DX Z (ip), vehicle: water 108 % of control | endpoint: mean survival time, dose: 0.15 mg/kg/injection, schedule: Q01DX015 (ip), vehicle: saline 114 % of control | endpoint: mean survival time, dose: 0.15 mg/kg/injection, schedule: Q04DX002 (ip), vehicle: saline 100 % of control and 105 % of control | endpoint: mean survival time, dose: 0.2 mg/kg/injection, schedule: Q01DX005 (ip), vehicle: saline 115 % of control | endpoint: mean survival time, dose: 0.2 mg/kg/injection, schedule: Q01DX005 (iv), vehicle: saline 106 % of control | endpoint: mean survival time, dose: 0.2 mg/kg/injection, schedule: Q04DX002 (ip), vehicle: saline 104 % of control | endpoint: mean survival time, dose: 0.23 mg/kg/injection, schedule: Q04DX003 (ip), vehicle: saline 110 % of control | endpoint: mean survival time, dose: 0.25 mg/kg/injection, schedule: Q01DX Z (ip), vehicle: water 115 % of control | endpoint: mean survival time, dose: 0.39 mg/kg/injection, schedule: Q04DX002 (ip), vehicle: saline 110 % of control | endpoint: mean survival time, dose: 0.4 mg/kg/injection, schedule: Q01DX005 (ip), vehicle: saline 105 % of control | endpoint: mean survival time, dose: 0.4 mg/kg/injection, schedule: Q01DX005 (iv), vehicle: saline 100 % of control | endpoint: mean survival time, dose: 0.5 mg/kg/injection, schedule: Q01DX009 (ip), vehicle: saline 105 % of control | endpoint: mean survival time, dose: 0.5 mg/kg/injection, schedule: Q01DX Z (ip), vehicle: saline 97 % of control | endpoint: mean survival time, dose: 0.5 mg/kg/injection, schedule: Q01DX Z (ip), vehicle: water 108 % of control | endpoint: mean survival time, dose: 0.5 mg/kg/injection, schedule: Q04DX004 (ip), vehicle: saline 110 % of control | endpoint: mean survival time, dose: 0.75 mg/kg/injection, schedule: Q01DX015 (ip), vehicle: saline 113 % of control | endpoint: mean survival time, dose: 0.8 mg/kg/injection, schedule: Q01DX001 (ip), vehicle: saline 115 % of control | endpoint: mean survival time, dose: 0.8 mg/kg/injection, schedule: Q01DX005 (iv), vehicle: saline 116 % of control | endpoint: mean survival time, dose: 0.8 mg/kg/injection, schedule: Q01DX015 (ip), vehicle: saline 108 % of control | endpoint: mean survival time, dose: 1.0 mg/kg/injection, schedule: Q01DX Z (ip), vehicle: water 95 % of control and 99 % of control | endpoint: mean survival time, dose: 1.0 mg/kg/injection, schedule: Q04DX004 (ip), vehicle: saline 115 % of control | endpoint: mean survival time, dose: 1.12 mg/kg/injection, schedule: Q01DX015 (ip), vehicle: saline 105 % of control | endpoint: mean survival time, dose: 1.5 mg/kg/injection, schedule: Q01DX001 (ip), vehicle: water 109 % of control and 112 % of control | endpoint: mean survival time, dose: 1.5 mg/kg/injection, schedule: Q04DX002 (ip), vehicle: saline 116 % of control | endpoint: mean survival time, dose: 6.0 mg/kg/injection, schedule: Q01DX001 (ip), vehicle: water 107 % of control | endpoint: mean survival time, dose: 3.2 micrograms/kg/injection, schedule: Q01DX015 (ip), vehicle: saline 94 % of control | endpoint: mean survival time, dose: 6.3 micrograms/kg/injection, schedule: Q01DX015 (ip), vehicle: saline 97 % of control | endpoint: mean survival time, dose: 11.0 micrograms/kg/injection, schedule: Q01DX009 (ip), vehicle: saline 102 % of control and 109 % of control | endpoint: mean survival time, dose: 12.5 micrograms/kg/injection, schedule: Q01DX015 (ip), vehicle: saline 98 % of control | endpoint: mean survival time, dose: 15.6 micrograms/kg/injection, schedule: Q03HX008 (ip), vehicle: clinical formulation 104 % of control | endpoint: mean survival time, dose: 15.6 micrograms/kg/injection, schedule: Q03HX016 (ip), vehicle: clinical formulation 100 % of control | endpoint: mean survival time, dose: 15.6 micrograms/kg/injection, schedule: Q03HX024 (ip), vehicle: clinical formulation 102 % of control | endpoint: mean survival time, dose: 23.0 micrograms/kg/injection, schedule: Q01DX009 (ip), vehicle: saline 98 % of control and 100 % of control | endpoint: mean survival time, dose: 25.0 micrograms/kg/injection, schedule: Q01DX015 (ip), vehicle: saline 112 % of control | endpoint: mean survival time, dose: 31.2 micrograms/kg/injection, schedule: Q01DX009 (ip), vehicle: clinical formulation 102 % of control | endpoint: mean survival time, dose: 31.2 micrograms/kg/injection, schedule: Q03HX008 (ip), vehicle: clinical formulation 106 % of control | endpoint: mean survival time, dose: 31.2 micrograms/kg/injection, schedule: Q03HX016 (ip), vehicle: clinical formulation 105 % of control | endpoint: mean survival time, dose: 47.0 micrograms/kg/injection, schedule: Q01DX009 (ip), vehicle: saline 109 % of control and 114 % of control | endpoint: mean survival time, dose: 50.0 micrograms/kg/injection, schedule: Q01DX015 (ip), vehicle: saline 113 % of control | endpoint: mean survival time, dose: 62.5 micrograms/kg/injection, schedule: Q03HX008 (ip), vehicle: clinical formulation 112 % of control | endpoint: mean survival time, dose: 62.5 micrograms/kg/injection, schedule: Q03HX016 (ip), vehicle: clinical formulation 105 % of control | endpoint: mean survival time, dose: 62.5 micrograms/kg/injection, schedule: Q04DX003 (ip), vehicle: clinical formulation 113 % of control | endpoint: mean survival time, dose: 100.0 micrograms/kg/injection, schedule: Q01DX015 (ip), vehicle: saline 103 % of control | endpoint: mean survival time, dose: 125.0 micrograms/kg/injection, schedule: Q01DX001 (ip), vehicle: clinical formulation 104 % of control | endpoint: mean survival time, dose: 125.0 micrograms/kg/injection, schedule: Q04DX003 (ip), vehicle: clinical formulation 115 % of control | endpoint: mean survival time, dose: 125.0 micrograms/kg/injection, schedule: Q08DX002 (ip), vehicle: clinical formulation 101 % of control | endpoint: mean survival time, dose: 200.0 micrograms/kg/injection, schedule: Q01DX015 (ip), vehicle: saline 115 % of control | endpoint: mean survival time, dose: 216.0 micrograms/kg/injection, schedule: Q04DX003 (ip), vehicle: saline 116 % of control | endpoint: mean survival time, dose: 250.0 micrograms/kg/injection, schedule: Q01DX001 (ip), vehicle: clinical formulation 106 % of control | endpoint: mean survival time, dose: 250.0 micrograms/kg/injection, schedule: Q03HX024 (ip), vehicle: clinical formulation 98 % of control | endpoint: mean survival time, dose: 250.0 micrograms/kg/injection, schedule: Q04DX003 (ip), vehicle: clinical formulation 116 % of control | endpoint: mean survival time, dose: 250.0 micrograms/kg/injection, schedule: Q08DX002 (ip), vehicle: clinical formulation 108 % of control | endpoint: mean survival time, dose: 500.0 micrograms/kg/injection, schedule: Q01DX001 (ip), vehicle: clinical formulation 113 % of control | endpoint: mean survival time, dose: 500.0 micrograms/kg/injection, schedule: Q08DX002 (ip), vehicle: clinical formulation 106 % of control | endpoint: mean survival time, dose: 600.0 micrograms/kg/injection, schedule: Q04DX003 (ip), vehicle: saline 112 % of control | endpoint: mean survival time, dose: 740.0 micrograms/kg/injection, schedule: Q01DX009 (ip), vehicle: saline 92 % of control and 102 % of control | endpoint: mean survival time, dose: 1000.0 micrograms/kg/injection, schedule: Q08DX002 (ip), vehicle: clinical formulation 108 % of control | endpoint: mean survival time, dose: 2000.0 micrograms/kg/injection, schedule: Q01DX001 (ip), vehicle: clinical formulation 116 % of control | endpoint: median survival time, dose: 0.02 mg/kg/injection, schedule: Q01DX001 (ip), vehicle: water 103 % of control | endpoint: median survival time, dose: 0.03 mg/kg/injection, schedule: Q01DX001 (ip), vehicle: water 103 % of control | endpoint: median survival time, dose: 0.05 mg/kg/injection, schedule: Q01DX001 (ip), vehicle: water 108 % of control | endpoint: median survival time, dose: 0.14 mg/kg/injection, schedule: Q01DX009 (ip), vehicle: water 114 % of control | endpoint: median survival time, dose: 0.25 mg/kg/injection, schedule: Q01DX002 (ip), vehicle: water 110 % of control | endpoint: median survival time, dose: 0.25 mg/kg/injection, schedule: Q01DX009 (ip), vehicle: water 115 % of control | endpoint: median survival time, dose: 0.4 mg/kg/injection, schedule: Q01DX001 (ip), vehicle: saline 111 % of control | endpoint: median survival time, dose: 0.4 mg/kg/injection, schedule: Q01DX009 (ip), vehicle: water 100 % of control and 103 % of control | endpoint: median survival time, dose: 0.5 mg/kg/injection, schedule: Q01DX001 (ip), vehicle: water 99 % of control and 100 % of control | endpoint: median survival time, dose: 1.0 mg/kg/injection, schedule: Q01DX001 (ip), vehicle: water 102 % of control | endpoint: median survival time, dose: 2.0 mg/kg/injection, schedule: Q01DX001 (ip), vehicle: water 116 % of control | endpoint: median survival time, dose: 2.0 mg/kg/injection, schedule: Q01DX002 (ip), vehicle: water 108 % of control
